{
  "source": "paper PMC8500670",
  "about": "“A selective WDR5 degrader inhibits acute myeloid leukemia in patient-derived mouse models” (Science translational medicine, 2021)",
  "key": {"[1]": {"target": "T1, cSRC (Homo sapiens, UniProt P12931)", "T1 construct": "gene SRC", "T1 sequence (P12931 whole entry)": "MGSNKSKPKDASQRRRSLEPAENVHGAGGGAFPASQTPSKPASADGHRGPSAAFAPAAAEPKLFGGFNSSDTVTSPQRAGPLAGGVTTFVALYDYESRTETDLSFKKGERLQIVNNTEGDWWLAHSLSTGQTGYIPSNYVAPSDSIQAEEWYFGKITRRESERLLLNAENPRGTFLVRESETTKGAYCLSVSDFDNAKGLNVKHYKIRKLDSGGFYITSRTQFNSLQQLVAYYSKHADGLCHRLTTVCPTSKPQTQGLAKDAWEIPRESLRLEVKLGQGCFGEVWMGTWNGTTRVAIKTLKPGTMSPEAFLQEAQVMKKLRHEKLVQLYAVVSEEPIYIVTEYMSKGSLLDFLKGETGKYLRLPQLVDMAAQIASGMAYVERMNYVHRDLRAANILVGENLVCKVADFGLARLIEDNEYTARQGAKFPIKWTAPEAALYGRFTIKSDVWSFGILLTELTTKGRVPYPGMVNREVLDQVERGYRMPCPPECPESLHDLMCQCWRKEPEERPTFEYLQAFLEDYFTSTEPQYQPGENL", "experiment": "biochemical", "design": "kinase selectivity panel, single concentration, duplicate", "description": "(§1) We next assessed selectivity of MS67 against 22 protein methyltransferases (table S2) and a broad panel of common drug targets including 45 kinases (table S3) and 44 G protein–coupled receptors (GPCR), ion channels, and transporters (table S4). […] We subsequently determined that MS67 had moderate binding affinity (Ki = 1.0 ± 0.8 μM) to Sigma 2 receptor (fig. S10)."}, "[2]": {"target": "T2, SAPK2a (Homo sapiens, UniProt Q16539)", "T2 construct": "gene MAPK14", "T2 sequence (Q16539 whole entry)": "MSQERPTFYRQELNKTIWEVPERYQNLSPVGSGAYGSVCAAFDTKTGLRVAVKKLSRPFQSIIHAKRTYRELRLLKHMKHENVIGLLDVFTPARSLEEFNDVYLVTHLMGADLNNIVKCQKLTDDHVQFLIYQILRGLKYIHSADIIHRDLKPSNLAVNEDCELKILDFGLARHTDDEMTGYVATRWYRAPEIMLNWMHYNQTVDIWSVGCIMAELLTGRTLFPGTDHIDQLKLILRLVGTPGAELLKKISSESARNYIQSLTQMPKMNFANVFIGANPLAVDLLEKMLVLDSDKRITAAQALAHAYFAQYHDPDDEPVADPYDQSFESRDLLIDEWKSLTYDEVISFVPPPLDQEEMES", "experiment": "biochemical", "design": "kinase selectivity panel, single concentration, duplicate", "description": "as §1"}, "[3]": {"target": "Lck (Homo sapiens, UniProt P06239)", "sequence (P06239 whole entry)": "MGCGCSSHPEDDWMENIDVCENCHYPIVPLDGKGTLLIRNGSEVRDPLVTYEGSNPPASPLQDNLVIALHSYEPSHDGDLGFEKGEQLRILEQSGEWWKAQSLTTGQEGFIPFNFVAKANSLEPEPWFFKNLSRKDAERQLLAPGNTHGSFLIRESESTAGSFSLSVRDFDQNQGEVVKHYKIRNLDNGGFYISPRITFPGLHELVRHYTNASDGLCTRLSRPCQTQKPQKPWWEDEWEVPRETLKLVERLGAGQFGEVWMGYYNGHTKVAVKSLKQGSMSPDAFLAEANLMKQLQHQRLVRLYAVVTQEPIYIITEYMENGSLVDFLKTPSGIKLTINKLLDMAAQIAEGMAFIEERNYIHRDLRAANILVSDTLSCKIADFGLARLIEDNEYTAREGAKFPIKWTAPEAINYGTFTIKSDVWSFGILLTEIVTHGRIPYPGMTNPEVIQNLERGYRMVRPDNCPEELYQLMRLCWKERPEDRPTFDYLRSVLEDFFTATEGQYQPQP", "experiment": "biochemical", "design": "kinase selectivity panel, single concentration, duplicate", "description": "as §1"}, "[4]": {"target": "EGFR (Homo sapiens, UniProt P00533)", "experiment": "biochemical", "design": "kinase selectivity panel, single concentration, duplicate", "description": "as §1"}, "[5]": {"target": "T3, PDK1 (Homo sapiens, UniProt O15530)", "T3 construct": "gene PDPK1", "experiment": "biochemical", "design": "kinase selectivity panel, single concentration, duplicate", "description": "as §1"}, "[6]": {"target": "MARK1 (Homo sapiens, UniProt Q9P0L2)", "experiment": "biochemical", "design": "kinase selectivity panel, single concentration, duplicate", "description": "as §1"}, "[7]": {"target": "IRAK4 (Homo sapiens, UniProt Q9NWZ3)", "sequence (Q9NWZ3 whole entry)": "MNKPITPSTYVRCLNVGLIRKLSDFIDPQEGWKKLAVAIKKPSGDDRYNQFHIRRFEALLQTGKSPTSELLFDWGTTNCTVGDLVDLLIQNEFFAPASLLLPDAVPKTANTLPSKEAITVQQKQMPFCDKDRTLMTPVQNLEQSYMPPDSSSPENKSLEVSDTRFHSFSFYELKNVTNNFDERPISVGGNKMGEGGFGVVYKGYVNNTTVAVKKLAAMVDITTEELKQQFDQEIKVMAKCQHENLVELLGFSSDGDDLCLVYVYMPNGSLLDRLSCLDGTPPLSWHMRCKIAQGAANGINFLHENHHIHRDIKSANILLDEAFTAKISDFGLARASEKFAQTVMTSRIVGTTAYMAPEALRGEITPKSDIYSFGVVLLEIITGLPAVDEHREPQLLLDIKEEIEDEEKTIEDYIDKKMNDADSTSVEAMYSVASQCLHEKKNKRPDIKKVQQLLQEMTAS", "experiment": "biochemical", "design": "kinase selectivity panel, single concentration, duplicate", "description": "as §1"}, "[8]": {"target": "T4, Pim-2 (Homo sapiens, UniProt Q9P1W9)", "T4 construct": "gene PIM2", "T4 sequence (Q9P1W9 whole entry)": "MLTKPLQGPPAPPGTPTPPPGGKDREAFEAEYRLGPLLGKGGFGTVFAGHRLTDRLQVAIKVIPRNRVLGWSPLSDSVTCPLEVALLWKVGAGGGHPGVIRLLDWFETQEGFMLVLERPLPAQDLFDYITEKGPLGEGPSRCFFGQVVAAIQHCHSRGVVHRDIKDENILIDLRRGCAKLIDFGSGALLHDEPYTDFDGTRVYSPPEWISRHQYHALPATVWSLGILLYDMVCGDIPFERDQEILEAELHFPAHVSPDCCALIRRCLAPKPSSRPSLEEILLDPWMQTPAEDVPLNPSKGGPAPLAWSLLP", "experiment": "biochemical", "design": "kinase selectivity panel, single concentration, duplicate", "description": "as §1"}, "[9]": {"target": "T5, CHK2 (Homo sapiens, UniProt O96017)", "T5 construct": "gene CHEK2", "T5 sequence (O96017 whole entry)": "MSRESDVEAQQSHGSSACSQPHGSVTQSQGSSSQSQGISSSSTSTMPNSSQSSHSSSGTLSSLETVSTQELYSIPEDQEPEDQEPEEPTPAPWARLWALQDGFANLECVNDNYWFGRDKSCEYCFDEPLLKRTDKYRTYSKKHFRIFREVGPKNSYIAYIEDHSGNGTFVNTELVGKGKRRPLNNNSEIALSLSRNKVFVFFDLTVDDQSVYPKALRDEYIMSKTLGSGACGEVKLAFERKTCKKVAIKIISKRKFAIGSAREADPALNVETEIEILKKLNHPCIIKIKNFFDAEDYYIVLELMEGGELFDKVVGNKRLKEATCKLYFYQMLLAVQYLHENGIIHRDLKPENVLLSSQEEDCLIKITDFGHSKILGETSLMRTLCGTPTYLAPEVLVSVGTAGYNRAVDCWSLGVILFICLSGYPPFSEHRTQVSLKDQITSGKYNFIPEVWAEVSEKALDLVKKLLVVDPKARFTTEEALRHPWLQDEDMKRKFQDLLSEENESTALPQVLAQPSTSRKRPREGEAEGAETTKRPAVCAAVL", "experiment": "biochemical", "design": "kinase selectivity panel, single concentration, duplicate", "description": "as §1"}, "[10]": {"target": "T6, PKA (Homo sapiens, UniProt P17612)", "T6 construct": "gene PRKACA", "experiment": "biochemical", "design": "kinase selectivity panel, single concentration, duplicate", "description": "as §1"}, "[11]": {"target": "T7, PKBα (Homo sapiens, UniProt P31749)", "T7 construct": "gene AKT1", "T7 sequence (P31749 whole entry)": "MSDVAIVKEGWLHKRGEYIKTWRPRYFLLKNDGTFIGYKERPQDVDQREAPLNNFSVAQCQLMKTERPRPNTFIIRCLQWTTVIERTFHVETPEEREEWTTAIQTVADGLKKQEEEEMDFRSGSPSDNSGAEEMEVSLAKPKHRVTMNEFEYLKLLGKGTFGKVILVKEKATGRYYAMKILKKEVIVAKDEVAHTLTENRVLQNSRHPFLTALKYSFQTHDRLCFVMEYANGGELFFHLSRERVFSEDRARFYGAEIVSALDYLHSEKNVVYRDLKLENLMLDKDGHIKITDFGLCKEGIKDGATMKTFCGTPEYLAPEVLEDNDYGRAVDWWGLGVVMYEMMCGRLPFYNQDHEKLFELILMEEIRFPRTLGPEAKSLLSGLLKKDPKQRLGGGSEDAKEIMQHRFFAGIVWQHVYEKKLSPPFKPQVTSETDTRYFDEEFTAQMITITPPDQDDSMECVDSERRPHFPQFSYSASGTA", "experiment": "biochemical", "design": "kinase selectivity panel, single concentration, duplicate", "description": "as §1"}, "[12]": {"target": "EphB4 (Homo sapiens, UniProt P54760)", "experiment": "biochemical", "design": "kinase selectivity panel, single concentration, duplicate", "description": "as §1"}, "[13]": {"target": "EZH1 Complex (Homo sapiens, UniProt Q92800)", "experiment": "biochemical", "design": "complex; protein methyltransferase inhibition panel, single concentration, duplicate", "description": "as §1"}, "[14]": {"target": "EZH2 Complex (Homo sapiens, UniProt Q15910)", "experiment": "biochemical", "design": "complex; protein methyltransferase inhibition panel, single concentration, duplicate", "description": "as §1"}, "[15]": {"target": "PRMT5/MEP50 Complex (Homo sapiens, UniProt O14744)", "sequence (O14744 whole entry)": "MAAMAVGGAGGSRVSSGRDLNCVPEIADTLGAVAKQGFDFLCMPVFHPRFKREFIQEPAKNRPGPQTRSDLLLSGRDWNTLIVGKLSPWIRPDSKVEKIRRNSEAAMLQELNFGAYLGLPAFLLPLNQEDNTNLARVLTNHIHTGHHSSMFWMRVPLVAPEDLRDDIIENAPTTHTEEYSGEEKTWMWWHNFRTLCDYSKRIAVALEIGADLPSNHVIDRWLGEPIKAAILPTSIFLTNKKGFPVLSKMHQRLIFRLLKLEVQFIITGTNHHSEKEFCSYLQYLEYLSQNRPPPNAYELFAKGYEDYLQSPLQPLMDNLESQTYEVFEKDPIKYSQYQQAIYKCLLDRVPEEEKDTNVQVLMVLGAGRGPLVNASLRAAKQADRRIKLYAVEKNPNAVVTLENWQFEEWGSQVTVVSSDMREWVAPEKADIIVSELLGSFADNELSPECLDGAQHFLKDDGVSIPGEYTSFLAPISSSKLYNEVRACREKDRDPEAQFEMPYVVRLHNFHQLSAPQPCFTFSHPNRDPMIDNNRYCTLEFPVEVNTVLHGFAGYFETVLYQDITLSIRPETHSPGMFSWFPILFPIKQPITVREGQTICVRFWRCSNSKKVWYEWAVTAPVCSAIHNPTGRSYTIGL", "sequence (Q9BQA1 whole entry partner)": "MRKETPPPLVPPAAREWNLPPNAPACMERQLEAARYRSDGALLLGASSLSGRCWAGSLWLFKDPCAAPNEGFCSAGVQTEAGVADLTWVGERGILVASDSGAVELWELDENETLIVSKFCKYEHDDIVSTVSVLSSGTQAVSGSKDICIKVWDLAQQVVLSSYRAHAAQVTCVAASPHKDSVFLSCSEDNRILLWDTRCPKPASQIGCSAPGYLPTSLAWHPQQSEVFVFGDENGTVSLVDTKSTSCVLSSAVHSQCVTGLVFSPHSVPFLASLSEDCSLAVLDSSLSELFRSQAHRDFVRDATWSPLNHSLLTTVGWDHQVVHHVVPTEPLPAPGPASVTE", "experiment": "biochemical", "design": "complex; protein methyltransferase inhibition panel, single concentration, duplicate", "description": "as §1"}, "[16]": {"target": "T8, NSD2 (Homo sapiens, UniProt O96028)", "T8 sequence (O96028 1-1365)": "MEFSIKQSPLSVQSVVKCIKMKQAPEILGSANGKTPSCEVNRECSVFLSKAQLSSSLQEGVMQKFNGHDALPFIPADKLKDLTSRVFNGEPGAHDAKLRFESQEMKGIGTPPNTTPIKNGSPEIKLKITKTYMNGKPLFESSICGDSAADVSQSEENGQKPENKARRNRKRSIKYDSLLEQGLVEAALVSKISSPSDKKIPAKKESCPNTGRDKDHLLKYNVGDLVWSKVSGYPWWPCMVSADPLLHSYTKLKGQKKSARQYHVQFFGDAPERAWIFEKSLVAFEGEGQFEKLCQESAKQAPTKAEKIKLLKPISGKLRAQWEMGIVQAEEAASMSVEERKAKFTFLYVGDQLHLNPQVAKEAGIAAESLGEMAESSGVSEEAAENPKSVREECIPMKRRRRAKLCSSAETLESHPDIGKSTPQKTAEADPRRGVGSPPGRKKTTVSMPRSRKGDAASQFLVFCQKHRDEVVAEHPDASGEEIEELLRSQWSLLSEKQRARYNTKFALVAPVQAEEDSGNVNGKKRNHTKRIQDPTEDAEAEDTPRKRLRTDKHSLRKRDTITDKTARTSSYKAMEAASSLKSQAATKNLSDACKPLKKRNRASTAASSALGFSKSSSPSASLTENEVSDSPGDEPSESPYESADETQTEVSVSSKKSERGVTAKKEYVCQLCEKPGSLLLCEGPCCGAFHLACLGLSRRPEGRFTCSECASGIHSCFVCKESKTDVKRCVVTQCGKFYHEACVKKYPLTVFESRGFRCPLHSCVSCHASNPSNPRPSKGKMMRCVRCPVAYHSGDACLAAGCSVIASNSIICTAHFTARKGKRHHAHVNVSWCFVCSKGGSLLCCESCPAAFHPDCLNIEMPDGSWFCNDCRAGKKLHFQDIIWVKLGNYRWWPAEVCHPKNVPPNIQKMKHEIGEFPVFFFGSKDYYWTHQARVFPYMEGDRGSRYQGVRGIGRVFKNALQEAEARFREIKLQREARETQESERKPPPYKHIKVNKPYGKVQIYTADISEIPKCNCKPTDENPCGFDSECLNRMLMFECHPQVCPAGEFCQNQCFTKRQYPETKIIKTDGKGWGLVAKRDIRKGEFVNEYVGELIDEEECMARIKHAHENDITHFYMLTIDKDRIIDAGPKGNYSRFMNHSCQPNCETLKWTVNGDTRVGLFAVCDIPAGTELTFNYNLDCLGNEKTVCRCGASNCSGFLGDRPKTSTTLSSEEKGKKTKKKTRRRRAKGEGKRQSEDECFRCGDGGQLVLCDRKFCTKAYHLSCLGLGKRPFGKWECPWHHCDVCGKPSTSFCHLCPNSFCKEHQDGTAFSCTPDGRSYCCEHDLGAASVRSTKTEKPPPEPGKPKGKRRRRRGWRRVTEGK", "experiment": "biochemical", "design": "protein methyltransferase inhibition panel, single concentration, duplicate", "description": "as §1"}, "[17]": {"target": "von Hippel–Lindau (VHL) (Homo sapiens, UniProt P40337)", "sequence (P40337 whole entry)": "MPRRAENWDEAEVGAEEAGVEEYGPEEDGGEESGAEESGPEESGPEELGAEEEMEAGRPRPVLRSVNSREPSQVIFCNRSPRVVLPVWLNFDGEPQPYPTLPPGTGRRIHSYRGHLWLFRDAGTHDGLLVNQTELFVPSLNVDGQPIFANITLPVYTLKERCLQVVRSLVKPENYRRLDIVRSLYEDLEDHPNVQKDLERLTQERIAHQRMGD", "sequence (Q15369 whole entry partner)": "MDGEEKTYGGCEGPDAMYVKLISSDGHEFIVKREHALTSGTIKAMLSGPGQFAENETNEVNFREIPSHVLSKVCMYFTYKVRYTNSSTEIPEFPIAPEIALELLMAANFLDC", "sequence (Q15370 whole entry partner)": "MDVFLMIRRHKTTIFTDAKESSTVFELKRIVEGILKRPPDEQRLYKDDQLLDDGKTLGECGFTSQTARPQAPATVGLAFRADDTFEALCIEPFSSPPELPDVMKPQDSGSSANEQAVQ", "experiment": "ITC; […]-Å crystal structure of WDR5-MS67-VCB ternary complex", "format": "binding"}},
  "data": [
    {"smiles": "Cc1ncsc1-c1ccc([C@H](C)NC(=O)[C@@H]2C[C@@H](O)CN2C(=O)[C@@H](NC(=O)CNC(=O)c2ccc(F)c(-c3ccc(N4C[C@@H](C)N(C)[C@@H](C)C4)c(NC(=O)c4c[nH]c(=O)cc4C(F)(F)F)c3)c2)C(C)(C)C)cc1", "note": "[MS67]", "values": [
      {"measurement": "inhibition at 1 µM", "setting": "[1]", "value": "< 10", "unit": "%"},
      {"measurement": "inhibition at 1 µM", "setting": "[2]", "value": "< 10", "unit": "%"},
      {"measurement": "inhibition at 1 µM", "setting": "[3]", "value": "< 10", "unit": "%"},
      {"measurement": "inhibition at 1 µM", "setting": "[4]", "value": "< 10", "unit": "%"},
      {"measurement": "inhibition at 1 µM", "setting": "[5]", "value": "< 10", "unit": "%"},
      {"measurement": "inhibition at 1 µM", "setting": "[6]", "value": "< 10", "unit": "%"},
      {"measurement": "inhibition at 1 µM", "setting": "[7]", "value": "< 10", "unit": "%"},
      {"measurement": "inhibition at 1 µM", "setting": "[8]", "value": "< 10", "unit": "%"},
      {"measurement": "inhibition at 1 µM", "setting": "[9]", "value": "< 10", "unit": "%"},
      {"measurement": "inhibition at 1 µM", "setting": "[10]", "value": "< 10", "unit": "%"},
      {"measurement": "inhibition at 1 µM", "setting": "[11]", "value": "< 10", "unit": "%"},
      {"measurement": "inhibition at 1 µM", "setting": "[12]", "value": "< 10", "unit": "%"},
      {"measurement": "inhibition at 10 µM", "setting": "[13]", "value": "< 10", "unit": "%"},
      {"measurement": "inhibition at 10 µM", "setting": "[14]", "value": "< 10", "unit": "%"},
      {"measurement": "inhibition at 10 µM", "setting": "[15]", "value": "< 10", "unit": "%"},
      {"measurement": "inhibition at 10 µM", "setting": "[16]", "value": "< 10", "unit": "%"},
      {"measurement": "Kd", "setting": "[17]", "value": "140 ± 7.2", "unit": "nM"}
    ]}
  ]
}
